Experiment: Plasma pharmacokinetics after topical administration, LC-MS/MS
Format: in vivo, human
Method: KX-01 was tested in adult subjects with actinic keratosis of the dorsal forearm (Example 1) and actinic keratosis on the face or scalp (Examples 2a and 2b). In Example 1, the plasma pharmacokinetics (PK) of KX-01 following topical administration was evaluated by collection of plasma on days 1 and 3 of the 3-day regimens and on days 1 and 5 of the 5-day regimens (Table 12). In Examples 2a and 2b, plasma samples were collected on days 1 and 5 of Cohort 1 (Table 13). Plasma samples at similar time points were collected on days 1 and 3 of Cohort 2. KX-01 was measured in human plasma using a validated LC-MS/MS assay with a lower limit of quantification (LLOQ) of 0.1 ng/mL.

For `O=C(Cc1ccc(-c2ccc(OCCN3CCOCC3)cc2)cn1)NCc1ccccc1` [KX-01], the “Plasma concentration, back-up sample” value (Day 5, 0.5 hours post-dose, back-up of the 23 ng/mL sample) was “BLQ”, the “Plasma concentration, aberrant primary sample” value (Day 5, 0.5 hours post-dose, likely cross contamination) was 0.023 µg/mL and the “Plasma concentration, back-up sample” value (Day 5, 1 hour post-dose, back-up of the 44 ng/mL sample) was 0.000351 µg/mL. For the same compound, the “Plasma concentration, aberrant primary sample” value (Day 5, 1 hour post-dose, likely cross contamination) was 0.044 µg/mL, the “Plasma samples above the limit of quantification” value (KX01-AK-002, after 1 day of treatment, of 336 samples) was 15 and the Measurable plasma concentrations (KX01-AK-002, all except three aberrant samples) was “below 0.7 ng/mL”. For the same compound, the “Subjects with measurable plasma concentrations at 4 hours post-dose on Day 5” value (KX01-AK-002 Cohort 1) was 42 out of 84, the “Subjects with quantifiable concentrations prior to the dose on Day 5” value (KX01-AK-002 Cohort 1) was 8 of 84 and the “Plasma concentration, back-up sample” value (back-up of the third aberrant sample) was 0.03 µg/mL. For the same compound, the “Plasma concentrations below the level of quantification (BLQ)” value (both studies) was 75%, the concentration at 5 days (human, plasma, up to 5 consecutive days of topical treatment, read-out: Systemic exposure (plasma concentration)) was less than 0.001 µg/mL and the “Apparent plasma concentration, aberrant sample” value (third aberrant sample, likely cross contamination) was “above 12,500 ng/mL”. The “Systemic exposure (plasma concentration)” value (up to 5 consecutive days of topical treatment) was less than 1 ng/mL.
